Assay results taken from patent publication US8017596B2, “Phosphonates useful as modulators of T-γ-9-δ-2 activity” (Innate Pharma, S.A., priority 2001, dated 2011).

Key:
Vγ9/Vδ2 lymphocytes = assay: Vγ9/Vδ2 lymphocyte expansion (flow cytometry immunofluorescence, anti-CD3 / anti-Vγ9); assay type: cell-based, human; settings: PBMC after 5 days in culture, 100 μM; FIG. 2E-2L
Experimental: FIGS. 2A-2L. In order to verify selectivity with respect to Vγ9/Vδ2 lymphocytes of molecule activating potential, PBMCs, were cultured and analysed after 5 days of culture in the presence of various molecules by flow cytometry immunofluorescence. For this, the cells are retrieved, washed in PBS and then incubated in the presence of human anti-CD3 monoclonal antibodies conjugated with fluoroscein (FITC, FL1) and human anti-Vγ9 coupled with biotin and then detected with Streptavidine-phycoerythrin conjugate (ST-PE, FL2). The markings are produced by incubating for 30 minutes with 0.5 μg of each antibody per million cells. The analysis is performed after washing on a FACScalibur-SORT cell analyser-sorter cytofluorimeter (Becton Dickinson, Mountain View, CA). FIG. 2A gives the profile (size FSC and granularity SSC) of the cells studied. […] FIGS. 2D to 2L show a PBMC after 5 days in culture in the presence of the molecule tested. FIG. 2D: cells stimulated with 1μg/ml phytohaemagglutinin A (PHA). FIG. 2E: cells stimulated with 100μM isoprenylpyrophosphate (IPP). FIG. 2F: cells stimulated with 100μM 1-pyrophosphono-4-methylpenta-1,3-diene. FIG. 2G: cells stimulated with 100μM (E) 1-pyrophosphono-penta-1,3-diene. FIG. 2H: cells stimulated with 100μM (E) 1-pyrophosphono-buta-1,3-diene, FIG. 2I: cells stimulated with 100μM 5-pyrophosphono-2-methylpent-2-ene. FIG. 2J: cells stimulated with 100μM α,γ-di-[4-methylpent-4-enyl]-triphosphonate. FIG. 2K: cells stimulated with 100μM 5-pyrophosphono-2methylpentene. FIG. 2L: cells stimulated with 100μM 5-triphosphono-2-methylpentene.
In order to verify selectivity with respect to Vγ9/Vδ2 lymphocytes of the molecule activating potential, PBMCs, cultured under the conditions described above were analysed after 5 days of culture in the presence of various molecules by flow cytometry immunofluorescence. For this, the cells are retrieved, washed in PBS and then incubated in the presence of human anti-CD3 monoclonal antibodies conjugated with fluoroscein (FITC, FL1) and human anti-Vγ9 coupled with biotin and then detected with Streptavidine-phycoerythrin conjugate (ST-PE, FL2). The markings are produced by incubating for 30 minutes with 0.5 μg of each antibody per million cells. The analysis is performed after washing on a FACScalibur-SORT cell analyser-sorter cytofluorimeter (Becton Dickinson, Mountain View, Calif.). The results are processed using Cellquest software.
FIG. 2A gives the profile (size FSC and granularity SSC) of the cells studied. […] FIGS. 2D to 2L show a PBMC after 5 days in culture in the presence of the molecule tested.

[1] = system: Human peripheral blood lymphocytes (PBMC); assay: Human peripheral blood T lymphocyte proliferation activation (3H-thymidine incorporation, stimulation index); settings: concentrations 0.001 μM to 500 μM, 4 days then 24 hours 3H-TdR, FIG. 1
Experimental: Human peripheral blood lymphocytes (PBMC) are isolated from donors' by centrifugation on Ficoll-Hypaque. They are then placed in culture in 96-well plates at a rate of 2.10^6 cells/ml in 200 μl of RPMI 1640 medium (Gibco) containing 10% foetal calf serum or human AB serum, 20 mM of Glutamine, 10 mM Hepes, 1 mM of sodium pyruvate, 10 μg/ml of penicillin-streptomycin. The molecules under test are then added at final concentrations ranging from 0.001 μM to 500 μM. Each condition is produced in triplicate. The molecules are diluted in isotonic phosphate buffer (PBS). The cells are then incubated at 37° C.-5% CO2 for 4 days. Cell proliferation is then determined by measuring the incorporation of thymidine ^3H (^3H-TdR). For this, 0.5 μCi of ^3H-TdR is added per culture. After 24 hours, the cells are retrieved on Cell Harvester (Packard Instruments) and the radioactivity incorporated in high molecular weight material is counted using a Rack-Beta counter (Packard).
The stimulation indices are evaluated as follows:
In all the experiments, isoprenyl pyrophosphonate (IPP) is selected as the reference.

[2] = Stability in human AB serum followed by phosphorus 31 NMR; settings: three days of incubation; for degradation of the molecule after incubation in serum: human AB serum, 31P NMR
Experimental: To 0.5 ml of each solution, 500 μl of human AB serum was added and the mixture were left to incubate. After three days of incubation, the degradation of the molecule is measured by phosphorus 31 NMR.

human γ9δ2 T lymphocytes = settings: in vitro; literature (Tanaka et al. 1994; Kunzmann et al. 2000); cited from earlier work
[3] = 0.1 mole/liter in D2O, 0.5 ml + 500 μl human AB serum

Row | Compound | Vγ9/Vδ2 T cell population in stimulated cultures (Vγ9/Vδ2 lymphocytes) | inducing T lymphocyte proliferation (proliferation index) compared with IPP [1] | γ9δ2 T lymphocyte proliferation (human γ9δ2 T lymphocytes) | further results
1 | 5-pyrophosphono-2-methylpent-2-ene [Compound M4] | high increase | more effective than IPP |  | 
2 | 5-pyrophosphono-2-methylpentene [Compound M6] | high increase | more effective than IPP |  | 
3 | 5-triphosphono-2-methylpentene [Compound M7] | high increase | more effective than IPP |  | 
4 | C=C(C)CCO[P@@](=O)(O)OP(=O)(O)O [IPP, isopentenyl pyrophosphate, reference compound] |  |  |  | integral of the 31P NMR peak of the intact molecule [2, 3]: 1.2; degradation of the molecule after incubation in serum [2]: significant degradation
5 | NCCCC(O)(P(=O)(O)O)P(=O)(O)O [alendronate] |  |  | stimulants of γ9δ2 T lymphocyte proliferation | 
6 | CCCCCN(C)CCC(O)(P(=O)(O)O)P(=O)(O)O [ibandronate] |  |  | stimulants of γ9δ2 T lymphocyte proliferation | 
7 | CCOP(=O)(O)O [monoethylphosphate] |  |  | induce in vitro, the proliferation of γ9δ2 T lymphocytes | 
8 | NCCC(O)(P(=O)(O)O)P(=O)(O)O [pamidronate] |  |  | stimulants of γ9δ2 T lymphocyte proliferation | 
9 | (E) 1-pyrophosphono-4-methylpenta-1,3-diene [Compound M1] | high increase | more effective than IPP |  | 
10 | (E) 1-pyrophosphono-buta-1,3-diene [Compound M3] | high increase | more effective than IPP |  | 
11 | (E) 1-pyrophosphono-penta-1,3-diene [Compound M2] | high increase | more effective than IPP |  | 
12 | isopentenyl pyrophosphonate [IPPN] |  |  |  | integral of the 31P NMR peak of the degradation product (isoprenyl phosphate / isoprenyl phosphonate) [2, 3]: 1.1; integral of the 31P NMR peak of the intact molecule [2, 3]: 96; degradation of the molecule after incubation in serum [2]: changed negligibly
13 | α,γ-di-[4-methylpent-4-enyl]-triphosphonate [Compound M5] | high increase | more effective than IPP |  | 
